According to patent US6649656B1, “Anthranilic acid derivatives” (Teijin Limited, priority 1998, dated 2003):
Where two headings read alike, the source gives them in different places.

What was measured:
Assay type in all cases: cell-based
[1] = test system: IgG antibody production from human lymphocyte; assay: Human in vitro IgG antibody production (same lymphocyte culture, sandwich ELISA); settings: for inhibition at 1 µM: Homo sapiens, Lymphocyte, test drug concentration 1 μM, IL-4 + IL-10 + anti-CD40 antibody, read-out: IgG production suppressing ratio (%); for IC50: IgG antibody production
Description: (§1) The concentrations of IgE and IgG antibodies were measured by the following method according to the method described in the Journal of Immunology vol.146, pp.1836-1842, 1991 and the Journal of Immunology vol. 147, pp.8-13, 1991.
(§2) Concretely, lymphocyte was separated from the peripheral venous blood of healthy person by density gradient centrifugation. The obtained lymphocyte was washed, suspended in a culture liquid (RPMI-1640 (product of Gibco Co.)+10% heat-inactivated FCS (product of Whittaker Co.)+100 μg/ml streptomycin+100 U/ml penicillin G+2 mM L-glutamine) and cultured for a week in the presence of interleukin 4 (IL-4, product of GENZYME Co.) (0.1 μg/ml), anti-CD40 antibody (antiCD40Aab, product of BIOSOURCE Co.), clone B-B20) (2 μg/ml) and interleukin 10 (IL-10, product of GENZYME Co.) (0.2 μg/ml) in the presence or absence of the compounds of the present invention described in the Tables 10 to 15 at various concentrations as test drugs.
(§3) The culture liquid was added to the culture system, the culture was continued for additional one week, and the concentrations of IgE and IgG antibodies in the supernatant were measured by sandwich ELISA method.
(§4) The measurement by ELISA method was carried out according to the known ELISA method by using rabbit anti-human IgE(ε) antibody (product of ICN Co.) as the primary antibody and biotin.anti-human IgE monoclonal antibody (G7-26, product of PharMingen Co.) as the secondary antibody for the measurement of IgE antibody concentration and anti-human IgG monoclonal antibody (G18-145, product of PharMingen Co.) as the primary antibody and biotin-donkey anti-human IgG antibody (H+L) (product of Jackson Co.) as the secondary antibody for the measurement of IgG antibody concentration, and using avidin-biotin-hourse radish peroxidase (ABC kit, product of Vector Lab.) as the enzyme and TMB (3,3′,5,5′-tetramethylbenzidine) microwell peroxidase substrate system (product of Kirkegaard & Perry Laboratories Inc.) as the substrate.
(§5) The value of IC50 and the suppressing ratio (%) at the test drug concentration of 1 μM were calculated based on the concentration attained in the absence of the compound of the present invention (reference: Ueshimna, et al. American Academy of Allergy & Immunology, 1995 Annual Meeting, Program No.818).

L929 cells = assay: Measurement of cytotoxicity using mouse tumor cell L929 (neutral red assay)
Description: [Procedure] The cytotoxicity action on tumor cell was measured by neutral red assay (the method described in the Journal of Tissue Culture Methodology vol.9, p.7 (1984) and Toxicology Letters, vol.24, p.119 (1985)). Concretely, L929 cells (5×10^4 cells/ml, 10% FCS/RPMI) were added to the wells of a 96 well ELISA plate at a rate of 100 μL each and cultured for a night, and the testing compounds of respective measurement concentrations were dissolved in DMSO solution and added to the above cells. The culture was continued for 3 days, and 2.0 μL of Neutral Red was added to attain the final concentration of 0.01%. The mixture was incubated for 1 hour at 37° C., the supernatant of the cell culture product was removed and the residue was washed twice with 200 μL of PBS to remove excess Neutral Red. Thereafter, the dye taken into the cell was extracted by adding 100 μL of 50% ethanol-1% acetic acid aqueous solution and the amount of the dye was determined by measuring the absorbance at 490 nm. The cytotoxicity was determined at each concentration of the test compound taking the cytotoxicity free from the drug as 100%. […] Two sets of measurement were performed for each test under the same condition and the average value was used as the test result.

[2] = test system: IgE antibody production from human lymphocyte; assay: Human in vitro IgE antibody production suppressing activity (lymphocyte culture with IL-4 + IL-10 + anti-CD40 antibody, sandwich ELISA); settings: for IC50: IgE antibody production; for inhibition at 1 µM: test drug concentration 1 μM, IL-4 + IL-10 + anti-CD40 antibody, read-out: IgE production suppressing ratio (%)
Description: as §1, §2, §3, §4, §5

[3] = test system: Cultured human cancer cells; assay: Carcinostatic action on cultured human cancer cell (sulforhodamine B; GI50, TGI, LC50); settings: for CC50 / GI50: Homo sapiens
Description: [Procedure] Cultured human cancer cells (39 kinds) were scattered on a 96 well plate, a solution of the testing substance (5-stage concentrations starting from 10^−4 M and diluted 10 times to 10^−8 M) was added thereto on the next day and the cells were cultured for 2 days. The number of the proliferated cells on each plate was determined by colorimetric quantitative analysis with sulforhodamine B. The concentration to suppress the proliferation of cell by 50% (GI50) compared with a control (free from the testing substance) was calculated and the following values (concentrations) were calculated based on the number of cells immediately before the addition of the testing substance.
TGI: concentration to suppress the proliferation to a standard cell number (free from the change of apparent number of cells)
LC50: concentration to decrease the number of cells to 50% of the standard cell number (cytocidal activity)
The proliferation-suppressing results of three testing substances 124, 257 and 983 on 9 representative cancer cell strains are collectively shown in the Tables 93 to 95.

[4] = L929, 72 h, read-out: LD50 (μM)
[5] = 72 h, cytotoxic activity against L929, neutral red assay, 3 days culture, read-out: LD50 (the source's name)

`CC(C)(C)OC(=O)NC1CCC(Oc2ccc(Oc3ccc(CC(=O)Nc4ccccc4C(=O)O)cc3)cc2)CC1` (centres unmarked) [compound 133] was tested, and the inhibition at 1 µM [1] was 98.2%, the IC50 [1] was 0.228 µM and the CC50 (L929 cells; [4]) was 0.33 µM. It also gave an IC50 [2] of 0.042 µM and an inhibition at 1 µM [2] of 100%.
In the case of `O=C(Cc1ccc(Oc2ccc(OC3CCCCCCC3)cc2)nc1)Nc1ccccc1C(=O)O` [compound 983], the “TGI” value ([3]; HBC-4) is reported as 76 µM, the “TGI” value ([3]; HCT-15) is reported as 30 µM and the CC50 ([3]; HBC4, HBC-4) is reported as greater than 100 µM. For the same compound, the GI50 ([3]; HBC4, HBC-4) was 0.59 µM, the CC50 ([3]; HCT-15) was greater than 100 µM and the GI50 ([3]; HCT-15) was 0.1 µM. For the same compound, the CC50 ([3]; MKN-74) was greater than 100 µM, the GI50 ([3]; MKN-74) was 0.46 µM and the CC50 ([3]; NCI-H460) was 95 µM. For the same compound, the GI50 ([3]; NCI-H460) was 0.33 µM, the CC50 ([3]; OVCAR-8) was greater than 100 µM and the GI50 ([3]; OVCAR-8) was 4.2 µM. It also gave a CC50 ([3]; PC-3) greater than 100 µM, a GI50 ([3]; PC-3) of 4.5 µM and a CC50 ([3]; RXF-631L) of 96 µM. For the same compound, the GI50 ([3]; RXF-631L) was 0.4 µM, the CC50 ([3]; SF-539) was 51 µM and the GI50 ([3]; SF-539) was 0.6 µM. The CC50 ([3]; LOX-IMVI) was 50 µM, the GI50 ([3]; LOX-IMVI) was 0.26 µM and the “TGI” value ([3]; LOX-IMVI) was 3.4 µM. The “TGI” value ([3]; MKN-74) was 25 µM, the “TGI” value ([3]; NCI-H460) was 16 µM and the “TGI” value ([3]; OVCAR-8) was 40 µM. The “TGI” value ([3]; PC-3) was 31 µM, the “TGI” value ([3]; RXF-631L) was 18 µM and the “TGI” value ([3]; SF-539) was 20 µM.
In the case of `O=C(Cc1ccc(Oc2ccc(OC3CCC(NS(=O)(=O)c4ccc(Cl)c(Cl)c4)CC3)cc2)cc1)Nc1ccccc1C(=O)O` (centres unmarked) [compound 124], the “TGI” value ([3]; HBC-4) is reported as 18 µM, the “TGI” value ([3]; HCT-15) is reported as 17 µM and the CC50 ([3]; HBC4, HBC-4) is reported as 57 µM. It also gave a GI50 ([3]; HBC4, HBC-4) of 0.25 µM, a CC50 ([3]; HCT-15) of 58 µM and a GI50 ([3]; HCT-15) of 0.17 µM. It also gave a CC50 ([3]; MKN-74) greater than 100 µM, a GI50 ([3]; MKN-74) of 0.086 µM and a CC50 ([3]; NCI-H460) of 69 µM. The GI50 ([3]; NCI-H460) was 0.091 µM, the CC50 ([3]; OVCAR-8) was 57 µM and the GI50 ([3]; OVCAR-8) was 3.1 µM. For the same compound, the CC50 ([3]; PC-3) was 55 µM, the GI50 ([3]; PC-3) was 10 µM and the CC50 ([3]; RXF-631L) was 38 µM. The GI50 ([3]; RXF-631L) was 0.13 µM, the CC50 ([3]; SF-539) was 57 µM and the GI50 ([3]; SF-539) was 0.13 µM. The CC50 ([3]; LOX-IMVI) was 45 µM, the GI50 ([3]; LOX-IMVI) was 0.09 µM and the “TGI” value ([3]; LOX-IMVI) was 10 µM. For the same compound, the “TGI” value ([3]; MKN-74) was 16 µM, the “TGI” value ([3]; NCI-H460) was 14 µM and the “TGI” value ([3]; OVCAR-8) was 23 µM. The “TGI” value ([3]; PC-3) was 24 µM, the “TGI” value ([3]; RXF-631L) was 12 µM and the “TGI” value ([3]; SF-539) was 26 µM. The CC50 (L929 cells; [5]) was 0.14 µM.
`O=C(Cc1ccc(Oc2ccc(OC3CCC(NC(=O)Nc4ccccc4)CC3)cc2)cc1)Nc1ccccc1C(=O)O` (centres unmarked) [compound 138] showed a CC50 (L929 cells; [5]) of 0.13 µM.
Work on `CCOCCOc1ccc(Oc2ccc(CC(=O)Nc3ccccc3C(=O)O)cn2)cc1` [compound 415] yielded an inhibition at 1 µM [1] of -85.8%, an IC50 [1] of 9.76 µM and an IC50 [2] of 0.028 µM. For the same compound, the inhibition at 1 µM [2] was 100%.
`O=C(Nc1ccccc1C(=O)O)c1ccc(Oc2ccc(OCCN3CCCCC3)cc2)cc1` [compound 93] gave an IC50 [1] greater than 10 µM, an IC50 [2] of 0.738 µM and an inhibition at 1 µM [2] of 56.2%.
In the case of `O=C(Cc1ccc(Oc2ccc(OC3CCN(Sc4ccc(Cl)c(Cl)c4)CC3)cc2)cc1)Nc1ccccc1C(=O)O` [compound 257], the “TGI” value ([3]; HBC-4) is reported as 18 µM, the “TGI” value ([3]; HCT-15) is reported as 17 µM and the CC50 ([3]; HBC4, HBC-4) is reported as 58 µM. It also gave a GI50 ([3]; HBC4, HBC-4) of less than 0.01 µM, a CC50 ([3]; HCT-15) of 53 µM and a GI50 ([3]; HCT-15) of less than 0.01 µM. The CC50 ([3]; MKN-74) was greater than 100 µM, the GI50 ([3]; MKN-74) was less than 0.01 µM and the CC50 ([3]; NCI-H460) was 44 µM. For the same compound, the GI50 ([3]; NCI-H460) was less than 0.01 µM, the CC50 ([3]; OVCAR-8) was 59 µM and the GI50 ([3]; OVCAR-8) was less than 0.01 µM. For the same compound, the CC50 ([3]; PC-3) was 69 µM, the GI50 ([3]; PC-3) was 10 µM and the CC50 ([3]; RXF-631L) was 42 µM. For the same compound, the GI50 ([3]; RXF-631L) was less than 0.01 µM, the CC50 ([3]; SF-539) was 51 µM and the GI50 ([3]; SF-539) was less than 0.01 µM. For the same compound, the CC50 ([3]; LOX-IMVI) was 44 µM, the GI50 ([3]; LOX-IMVI) was less than 0.01 µM and the “TGI” value ([3]; LOX-IMVI) was 10 µM. For the same compound, the “TGI” value ([3]; MKN-74) was 16 µM, the “TGI” value ([3]; NCI-H460) was 11 µM and the “TGI” value ([3]; OVCAR-8) was 23 µM. For the same compound, the “TGI” value ([3]; PC-3) was 26 µM, the “TGI” value ([3]; RXF-631L) was 14 µM and the “TGI” value ([3]; SF-539) was 17 µM.
Compound `O=C(Cc1ccc(Oc2ccc(OCc3ccncc3)cc2)cc1)Nc1ccccc1C(=O)O` [compound 37] has a CC50 (L929 cells; [4]) of 1.02 µM.
Work on `CNc1ccccc1C(=O)N[C@H]1CC[C@@H](Oc2ccc(Oc3ccc(CC(=O)Nc4ccccc4C(=O)O)cc3)cc2)CC1` [compound 156] yielded a CC50 (L929 cells; [5]) of 0.3 µM.
`O=C(Cc1ccc(Oc2ccc(OCC3(NC(=O)c4ccccc4)CCCC3)cc2)cc1)Nc1ccccc1C(=O)O` [compound 74] was tested, and the CC50 (L929 cells; [4]) was greater than 5 µM.
Compound `O=C(CCCOc1ccc2cc(Oc3ccc(CC(=O)Nc4ccccc4C(=O)O)cc3)ccc2c1)Nc1ccccc1C(=O)O` [compound 4] has a CC50 (L929 cells; [5]) of 0.375 µM.
Compound `COC(=O)N1CCC[C@H]1COc1ccc(Oc2ccc(CC(=O)Nc3ccccc3C(=O)O)cc2)cc1` [compound 59] has a CC50 (L929 cells; [4]) of 2.4 µM.
`O=C(Cc1ccc(Oc2ccc3cc(OCCN4CCOCC4)ccc3c2)nc1)Nc1ccccc1C(=O)O` [compound 427] showed an inhibition at 1 µM [1] greater than 10%, an IC50 [1] greater than 10 µM and an IC50 [2] of 0.04 µM. The inhibition at 1 µM [2] was 96.4%.
